What was measured:
[1] = Interfacial rheology, interfacial tension by the drop method (Tracker); assay type: physicochemical
Method: The interface (oil/aqueous solution of polymer) elastic behavior is measured from the variation in interfacial tension. The apparatus used for measuring the elastic properties is a Tracker®, manufactured by the company […] Concept. The interfacial tension is measured by the drop method. A deformation of the interfacial area by dilation or by contraction of the volume of the drop creates a variation in the interfacial concentration of the polymers adsorbed at the interface. The Tracker® records the response of the interfacial tension and subsequently establishes the relationship between the deformation of the interface and this response, which describes the rheological behavior of the interface. A deformation of the interfacial area is repeated over time by imposing a sinusoidal variation in the volume of the drop, and thus makes it possible to establish the viscoelastic characteristics of the interface. […] The drop is formed at the end of the capillary connected to a syringe, the plunger of which is controlled by a motor. The needle used has a 180° curve in order to have a rising drop, the density of the oils being in this case lower than that of the aqueous phase. The gauge of the needle is 18, which corresponds to an internal diameter of 0.84 mm and an external diameter of 1.27 mm. The needle is made of Teflon in order to avoid wetting of the drop on the walls of the needle. […]

[2] = Emulsion formation and stability over time, optical microscopy observation on storage; assay type: physicochemical; conditions: cyclodextrin monomer 17 mg/ml in water + 10 mg Parsol MCX per ml, pulsed sonication 40 s, stored at 25° C. with tangential agitation
Method: The α-, β- or γ-cyclodextrin monomers are placed in solution in water at a concentration of 17 mg/ml. 10 mg of Parsol® MCX are added to 1 ml of the aqueous solution of α-, β- or γ-cyclodextrin thus prepared. The mixture is then subjected to pulsed sonication for 40 seconds in an ice-cold bath (0° C.). The resulting product is stored at 25° C. with tangential agitation.
The α-, β- or γ-cyclodextrin dimers/trimers are put into solution in water. 10 mg of Parsol® MCX are added to 1 ml of the aqueous solution of α-, β- or γ-cyclodextrin dimer/trimer thus prepared. The mixture is then subjected to pulsed sonication for 40 seconds in an ice-cold bath (0° C.). The resulting product is stored at 25° C. with tangential agitation.
The resulting emulsions are conditioned for storage at 25° C., with tangential agitation, at 37° C. or 4° C. for a varying period ranging from a few days up to a few months before use.
Emulsions (a) to (c) are formed by pulsed sonication for a period of 40 seconds and stored at 25° C.

CC(C)=CCC/C(C)=C/CC/C(C)=C/CC/C=C(\C)CC/C=C(\C)CCC=C(C)C [squalene]
interfacial tension ([1]; oil drop in aqueous poly-β-CD solution): approximately 12 mN/m

OC[C@H]1O[C@@H]2O[C@H]3[C@H](O)[C@@H](O)[C@@H](O[C@H]4[C@H](O)[C@@H](O)[C@@H](O[C@H]5[C@H](O)[C@@H](O)[C@@H](O[C@H]6[C@H](O)[C@@H](O)[C@@H](O[C@H]7[C@H](O)[C@@H](O)[C@@H](O[C@H]1[C@H](O)[C@H]2O)O[C@@H]7CO)O[C@@H]6CO)O[C@@H]5CO)O[C@@H]4CO)O[C@@H]3CO [α-cyclodextrin monomers, α-cyclodextrin]
outcome of attempt to prepare an emulsion [2]: formation of an insoluble precipitate
outcome of attempt to prepare an emulsion ([2]; listed as α-monomers): an insoluble precipitate is formed as early as the first day (day zero)

OC[C@H]1O[C@@H]2O[C@H]3[C@H](O)[C@@H](O)[C@@H](O[C@H]4[C@H](O)[C@@H](O)[C@@H](O[C@H]5[C@H](O)[C@@H](O)[C@@H](O[C@H]6[C@H](O)[C@@H](O)[C@@H](O[C@H]7[C@H](O)[C@@H](O)[C@@H](O[C@H]8[C@H](O)[C@@H](O)[C@@H](O[C@H]1[C@H](O)[C@H]2O)O[C@@H]8CO)O[C@@H]7CO)O[C@@H]6CO)O[C@@H]5CO)O[C@@H]4CO)O[C@@H]3CO [β-cyclodextrin monomers, β-cyclodextrin]
behaviour of the oil/aqueous solution interface ([1]; squalene (borage, ginger) drop in aqueous cyclodextrin solution): formation of a rigid membrane at the surface of the squalene drop
outcome of attempt to prepare an emulsion [2]: formation of an insoluble precipitate
outcome of attempt to prepare an emulsion ([2]; listed as β-monomers): an insoluble precipitate is formed as early as the first day (day zero)

OC[C@H]1O[C@@H]2O[C@H]3[C@H](O)[C@@H](O)[C@@H](O[C@H]4[C@H](O)[C@@H](O)[C@@H](O[C@H]5[C@H](O)[C@@H](O)[C@@H](O[C@H]6[C@H](O)[C@@H](O)[C@@H](O[C@H]7[C@H](O)[C@@H](O)[C@@H](O[C@H]8[C@H](O)[C@@H](O)[C@@H](O[C@H]9[C@H](O)[C@@H](O)[C@@H](O[C@H]1[C@H](O)[C@H]2O)O[C@@H]9CO)O[C@@H]8CO)O[C@@H]7CO)O[C@@H]6CO)O[C@@H]5CO)O[C@@H]4CO)O[C@@H]3CO [γ-cyclodextrins, γ-cyclodextrin]
outcome of attempt to prepare an emulsion [2]: formation of an emulsion (for two days) and then a precipitation
outcome of attempt to prepare an emulsion ([2]; listed as γ-monomer): initially forms an emulsion and then precipitates rapidly (two days)
